Test results as given in PMC12461739, “Multi-targeted azacoumarin–cyanocinnamate hybrids induce G2/M arrest and apoptosis via tubulin, and COX-2/VEGFR modulation: insights from in vitro mechanistic basis and in vivo validation” (RSC Medicinal Chemistry, 2025).
Where “and” joins values, the source holds several entries; their conditions need not be identical. Identical values can stand only once.

How the values were obtained:
α-tubulin = assay: Western blot of α-tubulin in MCF-7 cells; format: cell-based, human; conditions: MCF-7, 7.653 μM (IC50)
Method: Cells were lysed in RIPA buffer (Thermo Scientific, Cat. #89900) containing protease and phosphatase inhibitors, and lysates were centrifuged at 12 000 × g for 15 min at 4 °C. Protein concentrations were determined using the BCA assay (Thermo Scientific, Cat. #23225), and equal amounts (20–50 μg) were mixed with 2× Laemmli sample buffer (Bio-Rad, Cat. #1610737) and denatured at 95 °C for 5 min. Proteins were separated on SDS-PAGE gels (8–10% for α-tubulin, 12% for β-actin; Bio-Rad TGX™, Cat. #456-9033) and transferred to PVDF membranes (Immobilon-P, Millipore, Cat. #IPVH00010) using a wet transfer system (100 V, 1 h, 4 °C). Membranes were blocked with 5% non-fat milk in TBST for 1 h at room temperature and incubated overnight at 4 °C with anti-α-tubulin (1 : 1000, Cell Signaling Technology, Cat. #3873) and anti-β-actin (1 : 5000, Sigma-Aldrich, Cat. #A5441) antibodies. After washing, membranes were incubated with HRP-conjugated secondary antibodies ([…], Cell Signaling Technology) for 1 h at room temperature. Protein bands were visualized using the SuperSignal™ West Pico/Femto ECL substrate (Thermo Scientific, Cat. #34095) and imaged with a Bio-Rad ChemiDoc system. Band intensities were quantified by densitometry using ImageJ software and normalized to β-actin levels.[82–84]

MCF-7 cells = assay: Annexin V-FITC/PI apoptosis assay; format: cell-based, human; conditions: MCF-7, IC50 concentration, 24 h
Method: Apoptotic cell death was quantified using annexin V-FITC and propidium iodide (PI) staining, in accordance with the manufacturer's instructions (BioVision, USA; Cat No. K101-25), with minor protocol adjustments. MCF-7 cells were plated at a density of 2 × 10^5 cells per well in DMEM-containing supplements and incubated overnight at 37 °C in a humidified atmosphere with 5% CO2. […] After treatment, cells were harvested using 0.25% trypsin–EDTA, rinsed twice with ice-cold phosphate-buffered saline (PBS), and resuspended in 500 μL of annexin V binding buffer. To each sample, 5 μL of annexin V-FITC and 5 μL of propidium iodide (PI) were then added for staining. The staining mixture was incubated in the dark for 15 minutes at room temperature. Samples were analyzed on a BD FACSCalibur™ flow cytometer (BD Biosciences, USA). Fluorescence was detected using the FL1 channel (530 nm) for annexin V-FITC and the FL2 channel (585 nm) for PI. Quadrant gating was used to distinguish between viable cells (annexin V^−/PI^−), early apoptotic cells (annexin V^+/PI^−), late apoptotic cells (annexin V^+/PI^+), and necrotic cells (annexin V^−/PI^+).

COX-2 = target: T1, COX-2 (Homo sapiens, UniProt P35354); assay: COX-2 inhibitor screening (fluorometric); format: biochemical
T1 construct: purchased BioVision K547-100
T1 sequence (P35354 18-604): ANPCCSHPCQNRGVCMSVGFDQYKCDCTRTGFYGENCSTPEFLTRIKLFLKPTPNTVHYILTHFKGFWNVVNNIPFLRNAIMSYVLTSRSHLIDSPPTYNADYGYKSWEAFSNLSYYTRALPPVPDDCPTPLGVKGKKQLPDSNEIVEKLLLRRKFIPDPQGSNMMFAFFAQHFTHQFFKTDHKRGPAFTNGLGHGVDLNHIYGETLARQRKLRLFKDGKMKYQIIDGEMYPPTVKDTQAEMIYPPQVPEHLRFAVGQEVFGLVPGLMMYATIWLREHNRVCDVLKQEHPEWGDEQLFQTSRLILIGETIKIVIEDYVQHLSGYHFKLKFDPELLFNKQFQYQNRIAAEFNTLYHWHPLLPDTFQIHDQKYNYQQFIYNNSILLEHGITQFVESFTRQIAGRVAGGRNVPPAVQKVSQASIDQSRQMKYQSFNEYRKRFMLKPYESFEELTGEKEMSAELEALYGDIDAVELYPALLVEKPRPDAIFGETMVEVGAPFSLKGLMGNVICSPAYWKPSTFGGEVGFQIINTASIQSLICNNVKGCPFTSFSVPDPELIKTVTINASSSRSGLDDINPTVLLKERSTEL
Method: COX-1 and COX-2 enzymes were reconstituted in sterile water (110 μL) and kept on ice until use. Arachidonic acid was activated by mixing 5 μL with 5 μL of NaOH, followed by a 10-fold dilution with water and vortexing. A reaction mixture (80 μL per well) was prepared by combining 76 μL of assay buffer, 1 μL of COX probe, 2 μL of 200-fold diluted COX cofactor, and 1 μL of COX-1 or COX-2 enzyme. This mix was added to each well, followed by 10 μL of the prepared arachidonic acid/NaOH solution to initiate the reaction. Fluorescence was recorded at 25 °C using a microplate reader. The percent inhibition was determined by comparing the fluorescence increase in treated wells relative to the enzyme control. IC50 values were calculated from the concentration–response curves using GraphPad Prism.

MDA-MB 231 cells = assay: MTT antiproliferative assay, MDA-MB 231; format: cell-based, human; conditions: Homo sapiens, MDA-MB-231, 48 h, MTT, 48 h treatment; read-out: IC50, antiproliferative activity toward MDA-MB 231
Method: The cytotoxic effects of the synthesized compounds were evaluated using the MTT assay. MCF-7, MDA-MB 231 (human breast cancer), and MCF-10A (non-tumorigenic breast epithelial) cells were seeded (1–3 × 10^4 cells per well) and incubated for 24 hours at 37 °C in a humidified atmosphere containing 5% CO2.[74] Following incubation, cells were treated with serial dilutions of the test compounds prepared in DMSO. The final concentration of DMSO in all wells, including controls, was maintained below 0.5% v/v to avoid solvent-related cytotoxicity. Doxorubicin was used as a positive control for comparison of antiproliferative activity. Following 48 hours of treatment, the culture medium was gently removed, and each well received 20 μL of MTT reagent (5 mg mL^−1 in phosphate-buffered saline). The plates were incubated at 37 °C for 4 hours to facilitate the enzymatic reduction of MTT into formazan by metabolically active cells. After incubation, the solution was discarded, and 100 μL of dimethyl sulfoxide was added. The absorbance of each well was measured at 570 nm using a microplate spectrophotometer. Cell viability was determined by comparing absorbance values to those of the untreated controls and expressed as a percentage. GraphPad Prism software was used to plot dose–response curves and calculate IC50 values.

**Q.** For CCOC(=O)/C(C#N)=C/c1ccc(Oc2c(C)c3cc(Br)c(O)c(Br)c3[nH]c2=O)cc1 [Compound 7, ethyl (E)-2-cyano-3-(4-((6,8-dibromo-7-hydroxy-4-methyl-2-oxo-1,2-dihydroquinolin-3-yl)oxy)phenyl)acrylate], which “reduction of α-tubulin protein expression vs untreated control” value (α-tubulin) is on record?
**A.** The value was 2.7 fold.

**Q.** What about the late apoptotic cells (MCF-7 cells; control 0.12%) of the same compound?
**A.** Its late apoptotic cells is 8.41%.

**Q.** What about the early apoptotic cells (MCF-7 cells; control 0.37%) of the same compound?
**A.** The early apoptotic cells was 15.36%.

**Q.** And the necrotic cell population (MCF-7 cells; control 2.22%)?
**A.** Its necrotic cell population is 3.57%.

**Q.** And the “selectivity index (SI), COX-1/COX-2” value (COX-2)?
**A.** The value was 5.93.

**Q.** What about the IC50 (COX-2; read-out: IC50 toward COX-2) of the same compound?
**A.** Its IC50 is 1260 nM and 1300 nM.

**Q.** And the IC50 (MDA-MB 231 cells)?
**A.** The IC50 was 9700 ± 1150 nM.
